Source: patent publication US20210255193A1, “LYSINE REACTIVE PROBES AND USES THEREOF” (The Scripps Research Institute, priority 2017, published 2021)

Key:
Test in all cases: direct labeling of recombinantly expressed proteins by gel-based ABPP (WT vs lysine mutant)
Assay type in all cases: binding
[1] = target: T1, HDHD3 (Homo sapiens, UniProt Q9BSH5); conditions: HDHD3 K15, KR mutant; 10 μM probe, 1 h
T1 construct: Flag; expressed in transfected cells; host or cells: HEK 293T
T1 sequence (Q9BSH5 1-251): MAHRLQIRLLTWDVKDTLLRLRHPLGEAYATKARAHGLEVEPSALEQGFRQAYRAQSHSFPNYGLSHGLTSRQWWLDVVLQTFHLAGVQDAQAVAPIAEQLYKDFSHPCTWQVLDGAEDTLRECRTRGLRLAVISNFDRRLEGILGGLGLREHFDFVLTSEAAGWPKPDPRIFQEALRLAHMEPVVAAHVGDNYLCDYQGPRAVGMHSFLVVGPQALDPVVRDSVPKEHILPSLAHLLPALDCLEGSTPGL
Text: (§1) Subcloning and mutagenesis. Unless noted below, genes were amplified from cDNA prepared from low passage HEK 293T cells using the Ribozol RNA extraction reagent (Amresco) and the iScript Reverse Transcription Supermix kit (Bio-Rad). For the following proteins cDNA clones were used for amplification instead: PFKP (5180268, Dharmacon), HK1 (BC008730, transomic), SIN3A (BC137098, transomic), G6PD (BC000337, transomic) and TGIF1 (BC031268, transomic). Mouse CARM1 in pFLAG-CMV-6c was a kind gift from the Mowen lab (TSRI). NUDT2 was obtained as synthesized gene (IDT). DNA was amplified with custom forward and reverse primers using phusion polymerase (NEB, M0530S), digested with the indicated restriction enzyme and ligated into pFLAG-CMV-6c or pRK5 with the appropriate affinity tag. Lysine mutants were generated using QuikChange site-directed mutagenesis using Phusion® High-Fidelity DNA Polymerase and primers containing the desired mutations and their respective complements. The cloning of TTR and its K35A mutant has been described in Choi et al., “Chemoselective small molecules that covalently modify one lysine in a non-enzyme protein in plasma,” Nat. Chem. Biol. 6, 133-139 (2010). TTR was expressed in E. coli and purified as described. For gel-based experiments 1 μM TTR was added into 1 mg ml^−1 soluble MDA-MB-231 lysate.
(§2) Recombinant expression of proteins by transient transfection. HEK 293T cells were grown to 50% confluency in 10 ml DMEM supplemented with 10% fetal bovine serum (FBS), penicillin, streptomycin and glutamine in 10 cm tissue culture dishes. 3 μg of DNA was diluted in 500 μL DMEM and 30 μL of PEI (MW 40,000, 1 mg ml^−1, Polysciences) were added. The mixture was incubated at room temperature for 30 min and added dropwise to the cells. Cells were grown for 48 h at 37° C. with 5% CO2. Cells were washed with cold PBS, scraped with cold PBS and cell pellets were isolated by centrifugation (1,400 g, 3 min, 4° C.), and stored at −80° C. until use. Cell pellets were resuspended in PBS, lysed by sonication and fractionated (100,000 g, 45 min) to yield soluble and membrane fractions. The soluble fraction was adjusted to a final protein concentration of 1 mg ml^−1 for gel-based ABPP experiments.
(§3) Direct labeling of recombinantly expressed proteins by gel-based ABPP. 50 μL of soluble HEK 293T proteome (1 mg ml^−1) expressing the respective protein (WT or KR mutant) or transfected with an empty vector were treated with 10 μM of the indicated probe for 1 h at room temperature. The samples were analyzed as described in the previous section. For quantification of relative labeling of the different protein variants, the intensity of labeling was determined by quantifying the integrated optical intensity of the bands using ImageLab 5.2.1 software (BioRad).

[2] = target: T2, PFKM (Homo sapiens, UniProt P08237); conditions: PFKM K678, KR mutant; 10 μM probe, 1 h
T2 construct: expressed in transfected cells; host or cells: HEK 293T
T2 sequence (P08237 1-780): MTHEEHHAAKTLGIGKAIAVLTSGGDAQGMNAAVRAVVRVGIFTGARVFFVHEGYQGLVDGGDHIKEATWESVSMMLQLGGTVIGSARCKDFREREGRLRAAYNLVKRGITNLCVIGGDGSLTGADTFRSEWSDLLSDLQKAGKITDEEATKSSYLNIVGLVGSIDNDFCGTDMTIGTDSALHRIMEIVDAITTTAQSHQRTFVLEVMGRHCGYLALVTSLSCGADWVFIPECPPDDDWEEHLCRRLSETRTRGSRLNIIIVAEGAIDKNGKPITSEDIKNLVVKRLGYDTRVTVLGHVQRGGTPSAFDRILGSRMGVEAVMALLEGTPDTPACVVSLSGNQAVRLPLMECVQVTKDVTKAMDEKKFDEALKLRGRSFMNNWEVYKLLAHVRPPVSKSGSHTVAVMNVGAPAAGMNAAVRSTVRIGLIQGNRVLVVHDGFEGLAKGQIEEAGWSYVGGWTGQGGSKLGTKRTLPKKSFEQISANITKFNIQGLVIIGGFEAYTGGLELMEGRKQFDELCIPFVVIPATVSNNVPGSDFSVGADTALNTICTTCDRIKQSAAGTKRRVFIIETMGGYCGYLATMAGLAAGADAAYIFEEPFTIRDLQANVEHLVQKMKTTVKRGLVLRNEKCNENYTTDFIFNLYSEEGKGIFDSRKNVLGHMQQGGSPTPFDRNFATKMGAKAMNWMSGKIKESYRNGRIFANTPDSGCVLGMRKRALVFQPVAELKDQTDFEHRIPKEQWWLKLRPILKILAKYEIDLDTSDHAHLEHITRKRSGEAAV
Text: as §1, §2, §3

[3] = target: T3, Sin3a (Homo sapiens, UniProt Q96ST3); conditions: Sin3a K155, KR mutant; 10 μM probe, 1 h
T3 construct: expressed in transfected cells; host or cells: HEK 293T
T3 sequence (Q96ST3 1-400): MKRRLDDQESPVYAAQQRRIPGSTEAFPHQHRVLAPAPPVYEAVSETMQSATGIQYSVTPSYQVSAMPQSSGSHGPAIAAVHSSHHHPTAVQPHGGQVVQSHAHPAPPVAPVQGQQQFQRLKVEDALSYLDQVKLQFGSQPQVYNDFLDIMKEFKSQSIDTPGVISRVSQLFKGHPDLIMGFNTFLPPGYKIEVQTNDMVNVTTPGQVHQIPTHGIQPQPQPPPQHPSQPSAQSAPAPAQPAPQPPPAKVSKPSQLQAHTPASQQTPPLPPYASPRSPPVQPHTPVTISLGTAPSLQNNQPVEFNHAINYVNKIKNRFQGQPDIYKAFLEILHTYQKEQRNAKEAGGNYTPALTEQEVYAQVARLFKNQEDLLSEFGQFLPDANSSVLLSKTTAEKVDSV
Text: as §1, §2, §3

Compound | labeling of WT vs mutant protein by probe [1] | labeling of WT vs mutant protein by probe [2] | labeling of WT vs mutant protein by probe [3]
C#CCCC(=O)Oc1c(F)c(F)c(S(=O)(=O)[O-])c(F)c1F.[Na+] [probe 1, reference compound] | HD (the WT labeled more than the mutant (>4x difference quantified)) | HD (the WT labeled more than the mutant (>4x difference quantified)) | PD (the WT labeled more than the mutant (>2x difference quantified))
C#Cc1ccc(C(=O)Oc2c(F)c(F)cc(F)c2F)cc1 [probe 12, 2,3,5,6-Tetrafluorophenyl 4-ethynylbenzoate] | HD (the WT labeled more than the mutant (>4x difference quantified)) | PD (the WT labeled more than the mutant (>2x difference quantified)) | HD (the WT labeled more than the mutant (>4x difference quantified))
C#Cc1ccc(C(=O)Oc2ccccc2[N+](=O)[O-])cc1 [probe 10, 2-Nitrophenyl 4-ethynylbenzoate] | HD (the WT labeled more than the mutant (>4x difference quantified)) | PD (the WT labeled more than the mutant (>2x difference quantified)) | HD (the WT labeled more than the mutant (>4x difference quantified))
Cc1cc(C)n2c1C=C1C=CC(CCC(=O)Oc3c(F)c(F)c(S(=O)(=O)[O-])c(F)c3F)=[N+]1[B-]2(F)F.[Na+] [probe 18, reference compound] | HD (the WT labeled more than the mutant (>4x difference quantified)) | PD (the WT labeled more than the mutant (>2x difference quantified)) | HD (the WT labeled more than the mutant (>4x difference quantified))
C#CCCC(=O)Oc1c(F)c(F)c(F)c(F)c1F [probe 6, Pentafluorophenyl 4-pentynoate] | HD (the WT labeled more than the mutant (>4x difference quantified)) | ND (the WT did not label more than the mutant (<2x difference quantified)) | HD (the WT labeled more than the mutant (>4x difference quantified))
C#Cc1ccc(C(=O)Oc2c(F)c(F)c(F)c(F)c2F)cc1 [probe 13, Pentafluorophenyl 4-ethynylbenzoate] | HD (the WT labeled more than the mutant (>4x difference quantified)) | PD (the WT labeled more than the mutant (>2x difference quantified)) | HD (the WT labeled more than the mutant (>4x difference quantified))
